Data on 22 compounds can be found in patent US20260325533A1, “CDK INHIBITOR COMPOUNDS” (ALEKSIA THERAPEUTICS, INC., priority 2023, published 2026).

Where two headings read alike, the source gives them in different places.

One test concerns the target CDK2/CCNE1 (Homo sapiens, UniProt P24941). Put plainly: CDK2 homogeneous time-resolved fluorescence (HTRF) kinase assay. The format is biochemical. The note with it: CDK2/CCNE. On the procedure: (§1) A CDK homogeneous time-resolved fluorescence (HTRF) assay was used to assess the potency of the compounds described herein.
(§2) To an untreated 384-well microtiter plate (ProxiPlate) was added 100 nL 100×test compound in DMSO and 5 μL 2×CDK enzyme in assay buffer (50 mM HEPES, 1 mM EGTA, 10 mM MgCl2, 0.01% Tween 20, 2 mM DTT). The plate was centrifuged at 800 RPM for 1 min then incubated for 20 min at 23 °C. 2.5 μL per well of 4×ATP and 2.5 μL 4×ULight™-eIF4E-binding protein 1 (Thr37/46) Peptide substrate were added to all wells. After addition, the plates were centrifuged at 800 RPM for 1 min. The plates were incubated at 23 °C for 60 min. 5 μL per well 4×EDTA solution were added to each well to stop the reaction. 5 μL 4×LANCE Ultra Europium-anti-phospho-eIF4E-binding protein 1 (Thr37/46) antibody were added to each well and the plate was centrifuged for 1 min at 800 RPM. The plate was incubated for 60 min at 23 °C. Fluorescence was read at 340 nm excitation and 665 nm emission on an En Vision 2105 fluorescence reader. The final concentrations of reagents in the activity assay were 3 nM CDK2/CCNE1, 1 mM ATP, 50 nM ULight™-eIF4E-binding protein 1 (Thr37/46) Peptide substrate, 1% DMSO, 10 mM EDTA, and 2 nM LANCE Ultra Europium-anti-phospho-eIF4E-binding protein 1 (Thr37/46).
(§3) Dose-response titrations were conducted by using an 11-point, half-logarithmic serial dilution scheme typically starting at 10 μM. Signals were reported as fluorescence units at 665 nm or the ratio of fluorescence units at 665 nm/fluorescence units at 615 nm. Signals are referred to below as “Lance signals”.
(§4) Using this assay, the IC50 values of example compounds were determined. Table 3 illustrates the IC50 for various Example compounds of Formula IA. Table 4 illustrates the IC50 for various other Example compounds of Formula I. ND=not determined.

The next test concerns the target CDK1/CCNB1 (Homo sapiens, UniProt P06493). Nature of the test: CDK1 homogeneous time-resolved fluorescence (HTRF) kinase assay. The format is biochemical. The note with it: CDK1/CCNB. On the procedure: as §1
as §2, with “were 0.5” for “were 3”, “nM CDK1/CCNB1,” for “nM CDK2/CCNE1,”
as §3, §4

Setting [1] is: 25-250 nM marked x, read-out: CDK2/CCNE IC50 25-250 nM.
Setting [2] is: >250 nM marked x, read-out: CDK1/CCNB IC50 >250 nM.
[3] abbreviates: <25 nM, read-out: CDK2/CCNE IC50 <25 nM.
The mark [4] stands for this setting: 25-250 nM marked x, read-out: CDK1/CCNB IC50 25-250 nM.

Chain of CDK1/CCNB1 (P06493 whole entry): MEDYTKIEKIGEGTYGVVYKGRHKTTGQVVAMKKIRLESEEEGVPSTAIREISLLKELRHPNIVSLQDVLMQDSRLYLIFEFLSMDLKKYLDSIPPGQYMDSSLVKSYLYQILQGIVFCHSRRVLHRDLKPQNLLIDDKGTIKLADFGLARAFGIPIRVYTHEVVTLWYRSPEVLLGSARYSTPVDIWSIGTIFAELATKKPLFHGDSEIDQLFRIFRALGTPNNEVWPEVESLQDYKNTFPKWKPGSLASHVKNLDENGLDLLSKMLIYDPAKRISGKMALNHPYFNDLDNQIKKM
Chain of CDK1/CCNB1 (P14635 whole entry partner): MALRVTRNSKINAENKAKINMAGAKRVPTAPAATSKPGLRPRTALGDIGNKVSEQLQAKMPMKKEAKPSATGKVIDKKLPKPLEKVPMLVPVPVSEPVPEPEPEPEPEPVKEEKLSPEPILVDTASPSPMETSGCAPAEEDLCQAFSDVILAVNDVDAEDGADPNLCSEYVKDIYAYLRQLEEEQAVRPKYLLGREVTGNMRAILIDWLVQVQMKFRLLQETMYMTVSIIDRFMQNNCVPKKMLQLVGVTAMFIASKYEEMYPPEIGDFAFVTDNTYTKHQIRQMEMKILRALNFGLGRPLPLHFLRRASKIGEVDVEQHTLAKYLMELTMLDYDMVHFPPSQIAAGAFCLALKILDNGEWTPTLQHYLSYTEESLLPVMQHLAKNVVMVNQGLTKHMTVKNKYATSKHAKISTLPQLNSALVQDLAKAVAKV

On to `CS(=O)(=O)N1CCC(Nc2cc3c(N4CCCCC4CO)nccc3cn2)CC1` (racemic) [Ex 56, (1-(7-((1-(methylsulfonyl)piperidin-4-yl)amino)-2,6-naphthyridin-1-yl)piperidin-2-yl)methanol], for which the IC50 on CDK2/CCNE1 (setting [1]) was 25 to 250 nM; at CDK1/CCNB1 (setting [2]), greater than 250 nM. Turning to `CS(=O)(=O)N1CCC(Nc2cc3c(N4CCCC4CO)nccc3cn2)CC1` (racemic) [Ex 57, (1-(7-((1-(methylsulfonyl)piperidin-4-yl)amino)-2,6-naphthyridin-1-yl)pyrrolidin-2-yl)methanol], the IC50 is 25 to 250 nM at CDK2/CCNE1 (setting [1]) and greater than 250 nM at CDK1/CCNB1 (setting [2]).

Turning to `CS(=O)(=O)N1CCC(Nc2cc3c(C(=O)N4CCC(C#N)C4)nccc3cn2)CC1` (racemic) [Ex 94, 1-(7-((1-(methylsulfonyl)piperidin-4-yl)amino)-2,6-naphthyridine-1-carbonyl)pyrrolidine-3-carbonitrile], the IC50 at CDK2/CCNE1 (setting [1]) is 25 to 250 nM; at CDK1/CCNB1 (setting [2]) it was greater than 250 nM. As to `CS(=O)(=O)N1CCC(Nc2cc3c(C(=O)N4CCCC(C#N)C4)nccc3cn2)CC1` (racemic) [Ex 98, 1-(7-((1-(methylsulfonyl)piperidin-4-yl)amino)-2,6-naphthyridine-1-carbonyl)piperidine-3-carbonitrile], the results for the IC50 at CDK2/CCNE1 (setting [1]) and on CDK1/CCNB1 (setting [2]) were 25 to 250 nM and greater than 250 nM, respectively. For the compound `C=CS(=O)(=O)N1CCC(Nc2cc3c(N4CCC(OC(C)=O)C4)nccc3cn2)CC1` (racemic) [Ex 104, 1-(7-((1-(vinylsulfonyl)piperidin-4-yl)amino)-2,6-naphthyridin-1-yl)pyrrolidin-3-yl acetate], the IC50 at CDK2/CCNE1 (setting [1]) is 25 to 250 nM; on CDK1/CCNB1 (setting [2]), greater than 250 nM. Regarding `N#CC1CCN(c2nccc3cnc(Nc4cccc(C(=O)NC5CCSC5=O)c4)cc23)CC1` (racemic) [Ex 112, 3-((5-(4-cyanopiperidin-1-yl)-2,6-naphthyridin-3-yl)amino)-N-(2-oxotetrahydrothiophen-3-yl)benzamide], the IC50 was 25 to 250 nM on CDK2/CCNE1 (setting [1]) and greater than 250 nM at CDK1/CCNB1 (setting [2]). For the compound `C=CS(=O)(=O)c1ccc(Nc2cc3c(N4CCCC(C#N)C4)nccc3cn2)cc1` (racemic) [Ex 123, 1-(7-((4-(vinylsulfonyl)phenyl)amino)-2,6-naphthyridin-1-yl)piperidine-3-carbonitrile], the figures for the IC50 on CDK2/CCNE1 (setting [1]) and at CDK1/CCNB1 (setting [2]) were 25 to 250 nM and greater than 250 nM, respectively. `CS(=O)(=O)c1ccc(Nc2cc3c(C4CCC(C#N)CC4)nccc3cn2)cc1` (racemic) [Ex 142, 4-(7-((4-(methylsulfonyl)phenyl)amino)-2,6-naphthyridin-1-yl)cyclohexane-1-carbonitrile]: the IC50 was less than 25 nM on CDK2/CCNE1 (setting [3]) and 25 to 250 nM on CDK1/CCNB1 (setting [4]).

For `COC(=O)C1CSC(c2nccc3cnc(Nc4ccc(S(C)(=O)=O)cc4)cc23)=N1` (racemic) [Ex 169, methyl 2-(7-((4-(methylsulfonyl)phenyl)amino)-2,6-naphthyridin-1-yl)-4,5-dihydrothiazole-4-carboxylate], the IC50 at CDK2/CCNE1 (setting [1]) is 25 to 250 nM; on CDK1/CCNB1 (setting [2]) it was greater than 250 nM. On to `Cc1c(-c2nccc3cnc(Nc4ccc(S(C)(=O)=O)cc4)cc23)ccc2nn(CC3CCNC3)cc12` (racemic) [Ex 195, 5-(4-methyl-2-(pyrrolidin-3-ylmethyl)-2H-indazol-5-yl)-N-(4-(methylsulfonyl)phenyl)-2,6-naphthyridin-3-amine], for which the IC50 on CDK2/CCNE1 (setting [1]) is 25 to 250 nM; on CDK1/CCNB1 (setting [2]), greater than 250 nM. Take `CS(=O)(=O)c1ccc(Nc2cc3c([C@@H]4CCC[C@H](O)C4)nccc3cn2)cc1` (racemic) [Ex 203, (1S,3R)-3-(7-((4-(methylsulfonyl)phenyl)amino)-2,6-naphthyridin-1-yl)cyclohexan-1-ol (cis, racemic)]: the IC50 at CDK2/CCNE1 (setting [1]) is 25 to 250 nM; on CDK1/CCNB1 (setting [2]), greater than 250 nM. As for `CS(=O)(=O)c1ccc(Nc2cc3c(C4CCCC(=O)C4)nccc3cn2)cc1` (racemic) [Ex 204, 3-(7-((4-(methylsulfonyl)phenyl)amino)-2,6-naphthyridin-1-yl)cyclohexan-1-one], the IC50 on CDK2/CCNE1 (setting [1]) is 25 to 250 nM; on CDK1/CCNB1 (setting [2]) it was greater than 250 nM. With `C=CS(=O)(=O)c1ccc(Nc2cc3c(N4CCC(O)C4)nccc3cn2)cc1` (racemic) [Ex 211, 1-(7-((4-(vinylsulfonyl)phenyl)amino)-2,6-naphthyridin-1-yl)pyrrolidin-3-ol], the IC50 on CDK2/CCNE1 (setting [1]) was 25 to 250 nM; on CDK1/CCNB1 (setting [2]), greater than 250 nM. For `CS(=O)(=O)N1CCC(Nc2cc3c(N4CCC(C(N)=O)C4)nccc3cn2)CC1` (racemic) [Ex 260, 1-(7-((1-(methylsulfonyl)piperidin-4-yl)amino)-2,6-naphthyridin-1-yl)pyrrolidine-3-carboxamide] the same measures were 25 to 250 nM and greater than 250 nM. With `COc1cc(S(=N)(=O)C2COC2)ccc1Nc1cc2c(C#Cc3ccc4c(c3)NC(=O)C43CC3)nccc2cn1` (single isomer, unassigned) [Ex 324, 6'-((7-((2-methoxy-4-(oxetane-3-sulfonimidoyl)phenyl)amino)-2,6-naphthyridin-1-yl)ethynyl)spiro[cyclopropane-1,3'-indolin]-2'-one], at CDK1/CCNB1 (setting [4]), the IC50 was in the range of 25 to 250 nM.

As to `CC(C)S(=N)(=O)c1ccc(Nc2cc3c(C#Cc4ccc5c(c4)NC(=O)C5(C)CO)nccc3cn2)cc1` (single isomer, unassigned) [Ex 331, 3-(hydroxymethyl)-3-methyl-6-((7-((4-(propan-2-ylsulfonimidoyl)phenyl)amino)-2,6-naphthyridin-1-yl)ethynyl)indolin-2-one], on CDK1/CCNB1 (<25 nM, read-out: CDK1/CCNB IC50 <25 nM), the IC50 was less than 25 nM. As to `CCC1(CC)C(=O)Nc2cc(C#Cc3nccc4cnc(Nc5ccc(S(=N)(=O)CC)cc5)cc34)ccc21` (single isomer, unassigned) [Ex 428, 3,3-diethyl-6-((7-((4-(ethylsulfonimidoyl)phenyl)amino)-2,6-naphthyridin-1-yl)ethynyl)indolin-2-one], the IC50 at CDK1/CCNB1 (x = IC50 >250 nM, read-out: CDK1/CCNB IC50 (>250 nM column)) was greater than 250 nM. `CCN(C)c1nccc2cnc(NC3CCN(S(C)(=O)=O)CC3)cc12` [Ex 38, N1-ethyl-N1-methyl-N7-(1-(methylsulfonyl)piperidin-4-yl)-2,6-naphthyridine-1,7-diamine]: the figures for the IC50 on CDK2/CCNE1 (setting [3]) and at CDK1/CCNB1 (setting [4]) were less than 25 nM and 25 to 250 nM, respectively. With `CS(=O)(=O)N1CCC(Nc2cc3c(N(CO)Cc4ccccc4)nccc3cn2)CC1` [Ex 53, (benzyl(7-((1-(methylsulfonyl)piperidin-4-yl)amino)-2,6-naphthyridin-1-yl)amino)methanol], the values for the IC50 on CDK2/CCNE1 (setting [1]) and on CDK1/CCNB1 (setting [2]) were 25 to 250 nM and greater than 250 nM, respectively.

On to `CC1(O)CCN(c2nccc3cnc(NC4CCN(S(C)(=O)=O)CC4)cc23)CC1` [Ex 54, 4-methyl-1-(7-((1-(methylsulfonyl)piperidin-4-yl)amino)-2,6-naphthyridin-1-yl)piperidin-4-ol], for which the results for the IC50 on CDK2/CCNE1 (setting [1]) and on CDK1/CCNB1 (setting [2]) were 25 to 250 nM and greater than 250 nM, respectively. As to `CN(Cc1ccccc1)C1CCN(c2nccc3cnc(NC4CCN(S(C)(=O)=O)CC4)cc23)CC1` [Ex 55, 5-(4-(benzyl(methyl)amino)piperidin-1-yl)-N-(1-(methylsulfonyl)piperidin-4-yl)-2,6-naphthyridin-3-amine], the IC50 at CDK2/CCNE1 (setting [1]) was 25 to 250 nM; on CDK1/CCNB1 (setting [2]), greater than 250 nM.

In the case of `CS(=O)(=O)N1CCC(Nc2cc3c(C(=O)N4CCCCC4)nccc3cn2)CC1` [Ex 97, (7-((1-(methylsulfonyl)piperidin-4-yl)amino)-2,6-naphthyridin-1-yl)(piperidin-1-yl)methanone], the IC50 at CDK1/CCNB1 (setting [2]) is greater than 250 nM.
